For the test, the system named is TRFP primed T cell cultures. As to the kind of experiment: T cell proliferation assay (tritiated thymidine incorporation) of TRFP-primed T cells restimulated with allergens or peptides. The format is cell-based, human. As for the experimental part: Peripheral blood mononuclear cells (PBMC) were purified from 60 ml of heparinized blood from cat allergic patients. PBMC were subsequently treated as described below, although in individual cases, the length of time of cultivation with IL-2 and/or IL-4 and the specific peptides used for stimulation varied.
10 ml of PBMC from patient 131 at 10^6/ml were cultured at 37°C for 7 days in the presence of 5 micrograms purified TRFP/ml RPMI-1640 supplemented with 5% pooled human AB serum. Viable cells were purified by Ficoll-Hypaque centrifugation and cultured for three weeks at 5 units recombinant human IL-2/ml and 5 units recombinant human IL-4/ml. The resting T cells were then restimulated (secondary) with 5 micrograms TRFP at 2 x 10^5/ml in the presence of irradiated (3500 Rads) autologous PBMC at a concentration of 5 x 10^5/ml for three days, purified by Ficoll-Hypaque centrifugation and grown in 5 units IL-2 and 5 units IL-4/ml for two weeks. For assay, 2 x 10^4 resting secondary T cells were restimulated (tertiary) in the presence of 5 x 10^4 irradiated (3500 Rads) autologous PBMC or 2 x 10^4 transformed B cells (20,000 Rads) with various concentrations of allergens or their fragments in a volume of 200 microliters in a 96-well round bottom assay plates for 3 days. Each well then received 1 microCurie tritiated (methyl) thymidine for 16 hours. The counts incorporated were collected onto glass fiber filters and processed for liquid scintillation counting.
Antigens used: T cell reactive feline protein (TRFP), Hollister-Stier cat epithelium skin test reagent (CST), IPC ragweed pollen extract (pollen), and synthetic peptides derived from the TRFP protein sequence (See Figures 6 and 7). Significant T cell proliferation is generally regarded as greater than 2.5 times the media control (T cells and antigen presenting cells alone).
Alternatively, PBMC were treated as follows: the primary stimulated cells were cultured in IL-2/IL-4 for two weeks. The resting T cells derived from this culture were tested in a secondary assay with some, but not all, of the above allergens. […] This type of epitope analysis has allowed the definition of T cell epitopes present in TRFP.

Where [1] appears, read: Chain #1 TRFP peptides, average cpm with antigen divided by cpm of T cells and antigen presenting cells alone, responding patients, SI ≥ 2.5 positive.
[2] abbreviates: Chain #1 TRFP peptides, cat allergic patients, average SI of all responding patients multiplied by percent of patients with a positive response.
The mark [3] stands for this setting: Chain #2 TRFP peptides, cat allergic patients, average SI of responding patients multiplied by percent positive.
The mark [4] stands for this setting: Chain #2 TRFP peptides, cat allergic patients, average of responding patients.

The substance “Fel 14-1: TRFP chain 1 peptide, amino acids 23 - 36 (EQVAQYKALPVVLE; UniProt P30438 45-58, looked up, fragment)” came in with an SI under setting [1] of 9.9. Under setting [2], this substance came in with a PI of 871.
For “Fel 30-7: TRFP chain 1 peptide, amino acids 26 - 55 (AQYKALPVVLENARILKNCVDAKMTEEDKE; UniProt P30438 48-77, looked up, fragment)”, the SI under setting [1] was 5.3. The substance also displayed a PI under setting [2] of 339.
Under setting [1], “Fel 8-1: TRFP chain 1 peptide, amino acids 5 - 33 (AVKRDVDLFLTGTPDEYVEQVAQYKALPV; UniProt P30438 27-55, looked up, fragment)” returned an SI of 15.1. The substance further registered a PI under setting [2] of 1374.
“Fel 32-2: TRFP chain 2 peptide, amino acids 14 - 24 (FFAVANGNELL; UniProt P30440 31-41, looked up, fragment)” returned a PI under setting [3] of 424. For the same substance, under setting [4], the SI is 5.3.
With “Fel 30-4: TRFP chain 1 peptide, amino acids 29 - 55 (KALPVVLENARILKNCVDAKMTEEDKE; UniProt P30438 51-77, looked up, fragment)”, under setting [1], the SI came out at 11.6. In addition, under setting [2], the PI is on record as 1079.
With “Fel 14-2: TRFP chain 1 peptide, amino acids 29 - 42 (KALPVVLENARILK; UniProt P30438 51-64, looked up, fragment)”, under setting [1], the SI came to 5.6. For the same substance, the PI under setting [2] was 336.
For “Fel 15: TRFP chain 1 peptide, amino acids 44 - 60 (CVDAKMTEEDKENALSV; UniProt P30438 66-82, looked up, fragment)” the same measures were 11.0 and 440.
For “Fel 30-2: TRFP chain 1 peptide, amino acids 25 - 48 (VAQYKALPVVLENARILKNCVDAK; UniProt P30438 47-70, looked up, fragment)” the same measures were 4.2 and 248.
For “Fel 3-1: TRFP chain 1 peptide, amino acids 18 - 33 (PDEYVEQVAQYKALPV; UniProt P30438 40-55, looked up, fragment)” the same measures were 9.4 and 638.
As for “Fel 31-6: TRFP chain 2 peptide, amino acids 15 - 40 (FAVANGNELLLDLSLTKVNATEPERT; UniProt P30440 32-57, looked up, fragment)”, the PI under setting [3] stood at 295. For the same substance, the SI under setting [4] was 4.4.
For “Fel 31-7: TRFP chain 2 peptide, amino acids 15 - 36 (FAVANGNELLLDLSLTKVNATE; UniProt P30440 32-53, looked up, fragment)” the same measures were 267 and 5.8.
Take “Fel 14-5: TRFP chain 1 peptide, amino acids 27 - 36 (QYKALPVVLE; UniProt P30438 49-58, looked up, fragment)”: the SI under setting [1] was found to be 5.4. The PI under setting [2] was 286.
For “Fel 8-2: TRFP chain 1 peptide, amino acids 6 - 33 (VKRDVDLFLTGTPDEYVEQVAQYKALPV; UniProt P30438 28-55, looked up, fragment)” the same measures were 15.2 and 1353.
“Fel 3-13: TRFP chain 1 peptide, amino acids 18 - 28 (PDEYVEQVAQY; UniProt P30438 40-50, looked up, fragment)” returned an SI under setting [1] of 11.5. Under setting [2], the PI is 690.
In the same order, the values of “Fel 14-4: TRFP chain 1 peptide, amino acids 26 - 36 (AQYKALPVVLE; UniProt P30438 48-58, looked up, fragment)” are 6.0 and 474.
Under setting [3], “Fel 32-1: TRFP chain 2 peptide, amino acids 12 - 24 (DVFFAVANGNELL; UniProt P30440 29-41, looked up, fragment)” displayed a PI of 442. Under setting [4], this substance returned an SI of 6.6.
For “Fel 31-1: TRFP chain 2 peptide, amino acids 14 - 40 (FFAVANGNELLLDLSLTKVNATEPERT; UniProt P30440 31-57, looked up, fragment)” the same measures were 733 and 9.4.
“Fel 30-8: TRFP chain 1 peptide, amino acids 28 - 55 (YKALPVVLENARILKNCVDAKMTEEDKE; UniProt P30438 50-77, looked up, fragment)” came in with an SI under setting [1] of 4.1. Further, the PI under setting [2] is on record as 262.
In the same order, the values of “Fel 3-15: TRFP chain 1 peptide, amino acids 18 - 29 (PDEYVEQVAQYK; UniProt P30438 40-51, looked up, fragment)” are 10.4 and 1040.
For the substance “Fel 23: TRFP chain 1 peptide, amino acids 51 - 66 (EEDKENALSVLDKIYT; UniProt P30438 73-88, looked up, fragment)”, under setting [1], the SI was 6.6. Under setting [2], this substance came in with a PI of 343.
In the same order, the values of “Fel 30-3: TRFP chain 1 peptide, amino acids 25 - 47 (VAQYKALPVVLENARILKNCVDA; UniProt P30438 47-69, looked up, fragment)” are 4.8 and 230.
In the same order, the values of “Fel 3-11: TRFP chain 1 peptide, amino acids 18 - 30 (PDEYVEQVAQYKA; UniProt P30438 40-52, looked up, fragment)” are 10.4 and 863.
Turning to “Fel 31-2: TRFP chain 2 peptide, amino acids 14 - 39 (FFAVANGNELLLDLSLTKVNATEPER; UniProt P30440 31-56, looked up, fragment)”, under setting [3], the PI came out at 599. In addition, the SI under setting [4] is reported as 8.1.
For “Fel 30-5: TRFP chain 1 peptide, amino acids 29 - 54 (KALPVVLENARILKNCVDAKMTEEDK; UniProt P30438 51-76, looked up, fragment)”, the SI under setting [1] is recorded as 11.0. For the same substance, under setting [2], the PI turned out to be 792.
Turning to “Fel 31-4: TRFP chain 2 peptide, amino acids 14 - 37 (FFAVANGNELLLDLSLTKVNATEP; UniProt P30440 31-54, looked up, fragment)”, the PI under setting [3] was 622. Besides, under setting [4], the SI was 8.4.
For “Fel 31-5: TRFP chain 2 peptide, amino acids 14 - 36 (FFAVANGNELLLDLSLTKVNATE; UniProt P30440 31-53, looked up, fragment)” the same measures were 539 and 7.6.
Under setting [1], “Fel 1-2: TRFP chain 1 peptide, amino acids 1 - 17 (EICPAVKRDVDLFLTGT; UniProt P30438 23-39, looked up, fragment)” came in with an SI of 7.4. The substance further registered a PI under setting [2] of 311.

The record behind these values is patent publication EP0500785B1, “A HUMAN T CELL REACTIVE FELINE PROTEIN (TRFP) ISOLATED FROM HOUSE DUST AND USES THEREFOR” (IMMULOGIC PHARMACEUTICAL CORPORATION, priority 1989, dated 2002).
